# Results published in patent US9981037B2, “Combination therapy of beta-glycolipids and antibodies for the treatment of immune-related disorders” (HADASIT MEDICAL RESEARCH SERVICES AND DEVELOPMENT LTD., priority 2008, dated 2018).
# Tests used:
# IgG and IgM repertoire = experiment: Antigen microarrays of serum IgG and IgM reactivities; type: in vivo, human
# From the text: A panel of self and non-self proteins, peptides and lipids were spotted onto Epoxi slides (TeleChem, CA, USA) as described [Quintana, F. J. et al. Proc. Natl. Acad. Sci. USA 101 Suppl 2:14615-14621 (2004)]. Since several of the self-antigens included in the antigen microarrays used by the invention, are targeted by natural antibodies [Coutinho, A. et al. Curr. Opin. Immunol. 7:812-818 (1995); Quintana, F. J. and Cohen, I. R. Biomed Pharmacother 58:276-281 (2004)], the inventors could detect both the up and the down-regulation of preexisting IgG and IgM reactivities. Sera from OKT3-treated subjects were assayed at a 1/10 dilution and the IgG or IgM reactivities displaying significant changes upon treatment were identified. Briefly, antigens were spotted in replicates of 6, the microarrays were blocked for 1 h at 37° C. with 1% bovine serum albumin, and incubated for 2 hr at 37° C. with a 1:200 dilution of the test serum in blocking buffer. The arrays were then washed and incubated for 45 minutes at 37° C. with a 1:500 dilution of detection antibodies: a goat […] Cy3-conjugated antibody or a goat anti-mouse IgM Cy5-conjugated antibody (Jackson ImmunoResearch, West Grove, Pa.). The arrays were scanned with a ScanArray 4000× scanner (GSI Luminomics, Billerica, Mass., USA) and the IgM and IgG results were recorded separately.
# Raw data were normalized and analyzed using the GeneSpring software (Silicon Genetics, Redwood City, Calif.). Antigen reactivity was defined by the mean intensity of binding to the replicates of that antigen on the microarray. The data were analyzed with the Wilcoxon rank-sum test, a non-parametric test robust to outliers, using the Benjamini and Hochberg false discovery method with a p-value of 0.2 to determine significance [Stekel, D. Microarray Bioinformatics. Cambridge University Press, Cambridge (2003)]. To perform the hierarchical clustering of the antibody reactivities a pair wise average linkage algorithm based on Pearson's correlation was used as a distance measure [Stekel (2003) ibid.]
# Antigen microarrays constitute a new tool for studying the immune system in health [Quintana, F. J. and Cohen, I. R. Biomed Pharmacother 58:276-281 (2004); Merbl, Y. et al. Clin. Invest. 117:712-718 (2007); Quintana, F. J. et al. J. Autoimmun. 21:65-75 (2003)] and disease [Goldschmidt, Y. et al. Technical Report MCS03-071-018 (2003); Hueber, W. et al. Arthritis Rheum. 52:2645-2655 (2005)]. The inventors therefore used an antigen microarray containing a broad panel of antigens that included self and non self proteins, heat shock proteins, and infectious agents to investigate the effects of oral OKT3 on the immune repertoire. Both increases and decreases of immunoglobulin reactivities were measured.
# No changes occurred in the IgM repertoire.
# PBL cells = experiment: Cytokine secretion profile of PBL cells stimulated with anti-CD3; type: in vivo, human
# Protocol: Nine subjects (3/group) were orally administered 0.2 mg, 1.0 mg or 5.0 mg of OKT3 daily for 5 days and immune parameters measured on days 5, 10 and 30 days (FIG. 12). Six subjects (3/group) received 7.5 mg of beta glucosylceramide in combination with 0.2 mg or 1.0 mg of OKT3 and 3 subjects received GC alone. All subjects were treated with 20 mg of Omeprazole (a proton pump inhibitor) during the 5 days of dosing. Dosing occurred in the morning before breakfast at the study site following a 8 hours fast.
# PBMCs were isolated from blood samples using Ficol Hypaque solution. To measure proliferation, 2×10^5 cells per well were cultured in triplicate in RPMI 1640 medium with 5% FBS (Biological Industries, Israel), 100 units/ml penicillin, 100 µg/ml streptomycin, 1% Glutamine, 1% non essential […], 1% sodium pyruvate and β-mercapto-ethanol (Biological Industries, Israel). Cells were stimulated with pre-coated antibodies (in 200 μl PBS/well):μg/well of anti OKT-3 mAb (Ortho Biotech Inc, New Jersey, USA) or 5 μg/ml soluble anti-CD3 mAb (eBioscience, CA, USA) or 2.5 μg/ml anti-CD28 mAb (R&D systems, MN, USA). One set of the above wells were added nothing while 10 μg of GC was added to a similar set for 72 h in culture at 37° C. with 5% CO2. Supernatants were collected for IL-13, IL-17 and IFN-γ. Enzyme-linked immunosorbent assays for these cytokines were performed according to the manufacturer's protocol (R&D Systems, Minneapolis, Minn.). For TGF-β, 2×10^5 cells per well were cultured in serum free media (Biotarget, Biological Industries, Israel). After collecting the supernatants, 1 µCi [^3H]thymidine (Amersham Biosciences, UK) was added to each well, and cells were harvested 18 h later. Proliferation was measured by scintillation counting.
# To investigate the effect of oral OKT3 on the cytokine secretion profile of T cells, PBL cells were stimulated with 5 μg anti-CD3 and the secretion of IFN-γ, IL-17, TGF-β and IL-13 was measured.
substance,measurement,setting,value
"OKT3: murine monoclonal anti-CD3 antibody (Orthoclone OKT-3, Ortho Biotech)",IgG reactivities affected,IgG and IgM repertoire; 0.2 mg dose,4
same,IgG reactivities affected,IgG and IgM repertoire; 1.0 mg dose,37
same,downregulated IgG reactivities,IgG and IgM repertoire; 1.0 mg dose,19
same,up regulated IgG reactivities,IgG and IgM repertoire; 1.0 mg dose,18
same,downregulated IgG reactivities,IgG and IgM repertoire; 5 mg dose,18
same,up-regulated IgG reactivities,IgG and IgM repertoire; 5 mg dose,47
same,IgG reactivities affected,IgG and IgM repertoire; 5.0 mg dose,65
same,changes in the IgM repertoire,IgG and IgM repertoire; oral OKT3,No changes
same,cytokine secretion findings,"PBL cells; 0.2 mg and 5.0 mg oral, not shown","similar, though not as consistent findings"
same,subjects with decrease in IFN-γ,PBL cells; 1.0 mg oral,three subjects
same,subjects with decrease of IL-17,PBL cells; 1.0 mg oral,two out of three subjects
same,subjects with increase of TGF-β,PBL cells; 1.0 mg oral,two out of three subjects
same,subjects with increase of IL-13,"PBL cells; 1.0 mg oral, not shown",three out of three subjects
